Experimental findings from ChEMBL document CHEMBL1154763, “Antitrypanosomal activity of 1,2-dihydroquinolin-6-ols and their ester derivatives” (J Med Chem, 2010) are described below.

Active and inactive are the calls of the source. The rule behind the calls is not given here. Where only a bound is given, the exact number is not on record here.

Series [1] relates to Trypanosoma brucei brucei. In words: Antitrypanosomal activity against Trypanosoma brucei brucei STIB 795 infected in NMRI mouse African trypanosomiasis model assessed as parasite free mouse survival at 10 mg/kg, ip qd administered for 4 consecutive days from day 3 to 6 postinfection measured up to 30 days. Particulars: STIB795.
The test system of another series is L6. In words: Cytotoxicity against rat L6 cells after 70 hrs by alamar blue assay. Conditions: L6, 70 h, read-out: IC50. The format is cell-based.
Series [2] relates to Trypanosoma brucei rhodesiense. In words: Antitrypanosomal activity against bloodstream Trypanosoma brucei rhodesiense STIB 900 after 70 hrs by alamar blue assay. Format: functional, organism-based. Conditions: STIB 900, 70 h. In general terms: The colour change of resazurin is a common sign of viable cells or microbes.
Series [3] concerns Trypanosoma brucei brucei. In words: Induction of reactive oxygen species generation in Trypanosoma brucei brucei MITat1,2,variant 221 at 1 uM preincubated for 24 hrs by CM-H2DCFDA fluorescence assay.
For series [4], the system named is Trypanosoma brucei brucei. In words: Induction of reactive oxygen species generation in Trypanosoma brucei brucei MITat1,2,variant 221 at 10 uM preincubated for 24 hrs by CM-H2DCFDA fluorescence assay.
The subject of series [5] is Trypanosoma brucei brucei. In words: Induction of reactive oxygen species generation in Trypanosoma brucei brucei MITat1,2,variant 221 at 0.1 uM preincubated for 24 hrs by CM-H2DCFDA fluorescence assay.
Series [6] in a line: Selectivity index, ratio of IC50 for rat L6 cells to IC50 for bloodstream Trypanosoma brucei rhodesiense STIB 900. The format is toxicity, cell-based. Particulars: read-out: Ratio IC50.
The test system of another series is Mus musculus. In words: Toxicity in Trypanosoma brucei STIB795 infected in NMRI mouse African trypanosomiasis model assessed as overt signs of at 50 mg/kg, ip qd administered for 4 consecutive days from day 3 to 6 postinfection measured up to 30 days. Particulars: in vivo, 720 h.
For series [7], the system named is Trypanosoma brucei brucei. In words: Antitrypanosomal activity against Trypanosoma brucei brucei STIB 795 infected in NMRI mouse African trypanosomiasis model assessed as parasite free mouse survival at 50 mg/kg, ip qd administered for 4 consecutive days from day 3 to 6 postinfection measured up to 30 days. Conditions: route intraperitoneal.
Series [8] relates to Trypanosoma brucei brucei. In words: Induction of reactive oxygen species generation in Trypanosoma brucei brucei MITat1,2,variant 221 preincubated for 24 hrs by CM-H2DCFDA fluorescence assay.

One may read the IC50 as the concentration at which inhibition is half-maximal.

As to `N=C(N)c1ccc(/N=N/Nc2ccc(C(=N)N)cc2)cc1`, the outcome in [1] was Active.
As to `CC(=O)Oc1ccc2c(c1)N(Cc1ccccc1)C(C)(C)C=C2C`, the IC50 in the series on L6 was found to be 71 µM; in [2] it was 4.4 µM. Further, the result in series [3], in series [4] and in series [5] was inactive. In addition, the selectivity ratio in series [6] is 16.
On to `CC1=CC(C)(C)N(Cc2ccccc2)c2ccccc21`, for which the IC50 came to 110 µM in the series on L6 and 57 µM in series [2]. Moreover, the result in series [3], in series [4] and in series [5] was inactive. The selectivity ratio in series [6] was 2.
In the case of `CC(=O)Oc1ccc2c(c1)C(C)=CC(C)(C)N2Cc1cccc(C#N)c1`, the concentration for half-maximal inhibition (IC50) in the series with L6 worked out at 31 µM; in [2], 0.18 µM. Moreover, the Activity entry in the series on Mus musculus is reported as “Non-toxic”. For the same compound, the selectivity ratio in [6] was determined as 170. Moreover, in series [7], the Survival stood at 9.25 days.
As to `CC(=O)Oc1ccc2c(c1)C(C)=CC(C)(C)N2Cc1ccccc1`, the IC50 with L6 amounted to 24 µM; in [2], 0.014 µM. Also, the Activity result is “Non-toxic” in the series with Mus musculus and “Dose-dependent effect” in series [8]. The selectivity ratio in [6] came to 1700. Further, the Survival in series [7] was over 14 days.
